Assay results: US20230107941A1, “HEPATITIS B CAPSID ASSEMBLY MODULATORS” (Venatorx Pharmaceuticals, Inc., priority 2019, published 2023)

Legend:
HBV = assay: In vitro antiviral assay: anti-HBV replication in HepAD38 cells (extracellular HBV DNA by QPCR); format: cell-based, hepatitis B virus (genotype D, serotype ayw); conditions: Hepatitis B virus, HePAD38, 168 h, 7 days incubation, extracellular HBV DNA by QPCR, read-out: Anti-HBV EC50
Procedure, shortened: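 Read-out is extracellular HBV DNA (copies/mL, QPCR standard curve) after 7-day exposure of tet-free HepAD38 cells to 10-fold dilutions from 1 μM down to 10 pM. Values normalised to DMSO vehicle; EC50 from 4-parameter nonlinear regression, with entecavir validating each run.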

[1] = In vitro cytotoxicity assay (MTT cell viability) in HepG2 cells; format: cell-based, human; conditions: human
Procedure, shortened: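 CC50 was derived by 4-parameter fit of viability relative to vehicle controls, measured as MTT formazan absorbance at 492 nm after 3–4 h of reagent and DMSO solubilization. Before that, HepG2 cells seeded overnight at 20,000/well were incubated 7 days at 37°C with compound from 30 μM down to 1.0 nM in half-log steps.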

Row | Structure (SMILES) | EC50 (HBV) [nM] | CC50 at 7 days [1] [nM]
1 | CCC1(NC(=O)C(=O)c2c(C)c(C(=O)Nc3ccc(F)c(C)c3)c(C)n2C)CCN(C(=O)c2ccnn2C)CC1 [Example 39, 5-(2-((4-ethyl-1-(1-methyl-1H-pyrazole-5-carbonyl)piperidin-4-yl)amino)-2-oxoacetyl)-N-(4-fluoro-3-methylphenyl)-1,2,4-trimethyl-1H-pyrrole-3-carboxamide] | < 50 | > 30000
2 | Cc1cc(NC(=O)c2c(C)c(C(=O)C(=O)N[C@@H]3CC[C@@H](O)C[C@@H]3F)n(C)c2C)ccc1F [Example 14, N-(4-fluoro-3-methylphenyl)-5-(2-(((1R,2S,4R)-2-fluoro-4-hydroxycyclohexyl)amino)-2-oxoacetyl)-1,2,4-trimethyl-1H-pyrrole-3-carboxamide] | < 50 | > 30000
3 | Cc1c(C(=O)N2CCC(C)(O)CC2)c(C)n(C)c1C(=O)C(=O)NC(C)(C)C [Example 61, N-(tert-butyl)-2-(4-(4-hydroxy-4-methylpiperidine-1-carbonyl)-1,3,5-trimethyl-1H-pyrrol-2-yl)-2-oxoacetamide] | 500 to 1000 | > 30000
4 | Cc1c(C(=O)Nc2cc(Cl)nc(Cl)c2)c(C)n(C)c1C(=O)C(=O)N[C@H](C)C(F)(F)F [Example 51, (R)-N-(2,6-dichloropyridin-4-yl)-1,2,4-trimethyl-5-(2-oxo-2-((1,1,1-trifluoropropan-2-yl)amino)acetyl)-1H-pyrrole-3-carboxamide] | < 50 | > 30000
5 | Cc1c(C(=O)Nc2ccc(F)cc2)c(C)n(C)c1C(=O)C(=O)N[C@]1(C)CC[C@@H](O)CC1 [Example 137, N-(4-fluorophenyl)-5-(2-(((1r,4r)-4-hydroxy-1-methylcyclohexyl)amino)-2-oxoacetyl)-1,2,4-trimethyl-1H-pyrrole-3-carboxamide] | < 50 | > 30000
6 | Cc1c(C(=O)Nc2cccc(C#N)c2)c(C)n(C)c1C(=O)C(=O)N[C@]1(C)CC[C@@H](O)CC1 [Example 170, N-(3-cyanophenyl)-5-(2-(((1r,4r)-4-hydroxy-1-methylcyclohexyl)amino)-2-oxoacetyl)-1,2,4-trimethyl-1H-pyrrole-3-carboxamide] | < 50 | > 30000
7 | Cc1c(C(=O)Nc2ccc(F)c(Br)c2)c(C)n(C)c1C(=O)C(=O)NC(C)(C)C [Example 60, N-(3-bromo-4-fluorophenyl)-5-(2-(tert-butylamino)-2-oxoacetyl)-1,2,4-trimethyl-1H-pyrrole-3-carboxamide] | < 50 | > 30000
8 | Cc1c(C(=O)Nc2ccc(B(O)O)cc2)c(C)n(C)c1C(=O)C(=O)NC(C)(C)C [Example 45, (4-(5-(2-(tert-butylamino)-2-oxoacetyl)-1,2,4-trimethyl-1H-pyrrole-3-carboxamido)phenyl)boronic acid] | 500 to 1000 | > 30000
9 | Cc1cc(NC(=O)c2c(C)c(C(=O)C(=O)NC3C[C@@H]4CC(O)[C@H]3C4)n(C)c2C)ccc1F (stereo partly drawn) [Example 24, N-(4-fluoro-3-methylphenyl)-5-(2-(((1S,4R)-6-hydroxybicyclo[2.2.1]heptan-2-yl)amino)-2-oxoacetyl)-1,2,4-trimethyl-1H-pyrrole-3-carboxamide] | < 50 | > 30000
10 | Cc1cc(NC(=O)c2c(C)c(C(=O)C(=O)N[C@]3(C)C[C@H](O)C3)n(C)c2C2CC2)ccc1F [Example 128, 2-cyclopropyl-N-(4-fluoro-3-methylphenyl)-5-(2-(((1s,3s)-3-hydroxy-1-methylcyclobutyl)amino)-2-oxoacetyl)-1,4-dimethyl-1H-pyrrole-3-carboxamide] | < 50 | > 30000
11 | Cc1cc(NC(=O)c2c(C)c(C(=O)C(=O)NCC(C)(C)O)n(C)c2-c2nccs2)ccc1F [Example 178, N-(4-fluoro-3-methylphenyl)-5-(2-((2-hydroxy-2-methylpropyl)amino)-2-oxoacetyl)-1,4-dimethyl-2-(thiazol-2-yl)-1H-pyrrole-3-carboxamide] | > 1000 | > 30000
